Test results reported in patent publication US20240216401A1, “COMBINATION THERAPY BY USING AKR1C3-ACTIVATED COMPOUND WITH IMMUNE CHECKPOINT INHIBITOR” (OBI Pharma, Inc., priority 2021, published 2024).
Values joined by “and” are separate entries in the source; they are usually repeats but may differ in a detail not shown here. Equal values may be shown once.

Legend:
[1] = tested on: PD-L1^+ cells in tumor-infiltrating lymphocytes; assay: Example 2: flow cytometry, percentage of PD-L1^+ cells in TILs; type: in vivo, Mus musculus; settings: G3, OBI-3424 1 mg/kg
Protocol: (§1) Mice were sacrificed by CO2 euthanasia at the end of the study duration, and the connective tissue around tumor was resected. The tumor samples were then weighed and cut equally into three sections if the tumor weight over 400 mg. The tumor tissue was prepared for the isolation of tumor-infiltrating lymphocytes (TILs). The rest of one section was fixed in 10% formaldehyde and embedded in paraffin; the other was stored at a temperature below −70° C.
The tumor samples were dissected into smaller fragments using scalpels and then digested with a cocktail of collagenase, DNase I, and Hyaluronidase (Collagenase #C5138, DNase I #D5025, Hyaluronidase #H6254, SigmaAldrich) for at least 2 hours.
Cells were stained with the fluorescently conjugated surface antibodies and incubated for 30 minutes at 4° C., and then resuspended in staining buffer for flow cytometric analysis. Flow cytometry was done using a Navios EX Flow Cytometer (Beckman Coulter). Data were analyzed using the Kaluza Analysis Software (Beckman Coulter).

HepG2 tumor = assay: Example 2: tumor volume, tumor weight and TGI in HepG2 tumor bearing humanized mice; type: in vivo, Mus musculus; settings: for mean tumor volume: mean±SEM; for tumor growth inhibition (TGI): Day 30 vs Day 0, alone or with anti-hPD-1 20 mg/kg
Protocol: 1. Species: Mus musculus • Strain: Advanced immunodeficiency mouse. • (NOD.CgPrkdc^scid Il2rg) • Source: Trineo Biotechnology Co., LTD.
Each group contains six mice. The human hepatocellular carcinoma cell line HepG2 were subcutaneously inoculated to the advanced immune-deficiency mice. Total of 42 mice were included in this study.
2.2. […] The subcutaneous injection volume was […].
3.1. […] The injection was performed using insulin syringe with the dosage of 0.3 mg/kg or 1 mg/kg and the injection volume was 5 mL/kg. […] The reference item was administered for G1. The procedure followed the standards of sample administration. The starting day of test item administration was denoted as the first experimental day (DO).
3.2. […] The injection was performed using insulin syringe with the dosage of 20 mg/kg and injection volume of 10 mL/kg. […] The procedure followed the standards of sample administration.
The measurement was performed from the next day of the inoculation. The tumor volumes were measured and recorded twice a week (Mon., Thur.). Tumor volume was calculated by ellipsoid equation according to the records ((major axis×minor axis×minor axis)×(π/6)).
Tumor volumes were used to calculate tumor growth inhibition (TGI) rates according to the following formula: TGI (%)=[1−(Ti−T0)/(Ci−C0)]×100, where Ti and Ci indicate the mean tumor volume in the treatment groups and vehicle group at the end of the experiment (Day 30). Whereas, T0 and C0 indicate the mean tumor volumes in the treatment group and vehicle group at the beginning of the experiment (Day 0).
as §1

[2] = G2 OBI-3424 (0.3 mg/kg), D30, group Mean
[3] = G2 OBI-3424 (0.3 mg/kg), D30, individual animals, 0.3 mg/kg
[4] = G3 OBI-3424 (1 mg/kg), D30, individual animals, 1 mg/kg

C[C@H](OP(=O)(N1CC1)N1CC1)c1ccc([N+](=O)[O-])c(Oc2cccc(C(=O)N(C)C)c2)c1 [OBI-3424, (S)-1-(3-(3-N,N-dimethylaminocarbonyl)phenoxyl-4-mtrophenyl)-1-ethyl-N,N′-bis(ethylene)phosphoramidate]
Total PD-L1^+ cells (PD-L1^+), Total % ([1]; group Mean): 2.08% | Total PD-L1^+ cells (PD-L1^+), Total cells Gated % ([1]; group Mean): 2.24% | PD-L1^+ cells (CD45^− PD-L1^+), CD45^− Gated % ([1]; individual animal, 1 mg/kg): 4.18% and 2.31% and 4.37% and 7.16% and 4.63% | PD-L1^+ cells (CD45^− PD-L1^+), Cell count ([1]; individual animal, 1 mg/kg): 0.08 ×10^5 and 0.30 ×10^5 and 0.41 ×10^5 and 0.51 ×10^5 and 0.49 ×10^5 and 0.47 ×10^5 | PD-L1^+ cells (CD45^− PD-L1^+), Total % ([1]; individual animal, 1 mg/kg): 0.27% and 0.24% and 0.58% (2×) and 0.52% and 0.66% | Total PD-L1^+ cells (PD-L1^+), Cell count ([1]; individual animal, 1 mg/kg): 0.46 ×10^5 and 1.50 ×10^5 and 2.03 ×10^5 and 1.69 ×10^5 and 1.67 ×10^5 and 2.32 ×10^5 | Total PD-L1^+ cells (PD-L1^+), Total % ([1]; individual animal, 1 mg/kg): 1.58% and 1.19% and 2.88% and 1.71% and 2.24% and 2.86% | Total PD-L1^+ cells (PD-L1^+), Total cells Gated % ([1]; individual animal, 1 mg/kg): 1.66% and 1.26% and 3.32% and 1.80% and 2.39% and 3.03% | dose relation of reduction in mean tumor volume (in words) (HepG2 tumor; Example 2, D30, OBI-3424 0.3 mg/kg and 1 mg/kg): dose-related reduction | mean tumor volume (HepG2 tumor; Example 2, D30, OBI-3424 0.3 mg/kg IV, alone (G2) or with anti-hPD-1 20 mg/kg IP (G5)): 716.44±31.12 mm^3 | mean tumor volume (HepG2 tumor; Example 2, D30, OBI-3424 1 mg/kg IV, alone (G3) or with anti-hPD-1 20 mg/kg IP (G6)): 216.90±22.20 mm^3 | mean tumor volume compared with vehicle (in words) (HepG2 tumor; Example 2, D30, vs vehicle (G1), OBI-3424 high-dose 1 mg/kg (G3), anti-hPD-1 20 mg/kg (G4), combinations G5-G7): significantly suppressed | tumor weight compared with vehicle (in words) (HepG2 tumor; Example 2, Day 30, OBI-3424 low-dose (G2), high-dose (G3), combinations G5-G7 vs vehicle (G1)): significantly suppressed | tumor growth inhibition (TGI) (HepG2 tumor; Example 2, high-dose OBI-3424 (1 mg/kg)): 113.27% | tumor growth inhibition (TGI) (HepG2 tumor; Example 2, low-dose OBI-3424 (0.3 mg/kg)): 27.82% | anti-tumor effect (conclusion in words) (HepG2 tumor; Example 2, HepG2 humanized mouse model, combination: high-dose OBI-3424): dose-dependent trend with anti-tumor activity | TGI (HepG2 tumor; G2 OBI-3424 (0.3 mg/kg)): 27.82% | Tumor volume (HepG2 tumor; G2 OBI-3424 (0.3 mg/kg), D0, group Mean): 293.3 mm^3 | Tumor volume (HepG2 tumor; G2 OBI-3424 (0.3 mg/kg), D0, individual animals, 0.3 mg/kg): 280.0 mm^3 and 279.4 mm^3 and 226.0 mm^3 and 353.6 mm^3 and 317.7 mm^3 and 303.0 mm^3 | Tumor volume (HepG2 tumor; G2 OBI-3424 (0.3 mg/kg), D2, group Mean): 300.8 mm^3 | Tumor volume (HepG2 tumor; G2 OBI-3424 (0.3 mg/kg), D2, individual animals, 0.3 mg/kg): 283.9 mm^3 and 281.1 mm^3 and 230.6 mm^3 and 354.0 mm^3 and 321.0 mm^3 and 334.4 mm^3 | Tumor volume (HepG2 tumor; G2 OBI-3424 (0.3 mg/kg), D6, group Mean): 307.8 mm^3 | Tumor volume (HepG2 tumor; G2 OBI-3424 (0.3 mg/kg), D6, individual animals, 0.3 mg/kg): 289.0 mm^3 and 293.9 mm^3 and 241.0 mm^3 and 356.0 mm^3 and 330.5 mm^3 and 336.3 mm^3 | Tumor volume (HepG2 tumor; G2 OBI-3424 (0.3 mg/kg), D9, group Mean): 388.7 mm^3 | Tumor volume (HepG2 tumor; G2 OBI-3424 (0.3 mg/kg), D9, individual animals, 0.3 mg/kg): 375.6 mm^3 and 367.0 mm^3 and 395.2 mm^3 and 367.9 mm^3 and 388.9 mm^3 and 437.7 mm^3 | Tumor volume (HepG2 tumor; G2 OBI-3424 (0.3 mg/kg), D13, group Mean): 509.0 mm^3 | Tumor volume (HepG2 tumor; G2 OBI-3424 (0.3 mg/kg), D13, individual animals, 0.3 mg/kg): 569.5 mm^3 and 452.6 mm^3 and 528.9 mm^3 and 388.3 mm^3 and 590.7 mm^3 and 524.2 mm^3 | Tumor volume (HepG2 tumor; G2 OBI-3424 (0.3 mg/kg), D16, group Mean): 617.1 mm^3 | Tumor volume (HepG2 tumor; G2 OBI-3424 (0.3 mg/kg), D16, individual animals, 0.3 mg/kg): 714.1 mm^3 and 528.0 mm^3 and 714.4 mm^3 and 405.8 mm^3 and 749.1 mm^3 and 591.5 mm^3 | Tumor volume (HepG2 tumor; G2 OBI-3424 (0.3 mg/kg), D20, group Mean): 702.3 mm^3 | Tumor volume (HepG2 tumor; G2 OBI-3424 (0.3 mg/kg), D20, individual animals, 0.3 mg/kg): 808.4 mm^3 and 658.4 mm^3 and 854.0 mm^3 and 419.5 mm^3 and 751.9 mm^3 and 721.3 mm^3 | Tumor volume (HepG2 tumor; G2 OBI-3424 (0.3 mg/kg), D23, group Mean): 744.1 mm^3 | Tumor volume (HepG2 tumor; G2 OBI-3424 (0.3 mg/kg), D23, individual animals, 0.3 mg/kg): 889.2 mm^3 and 661.3 mm^3 and 890.1 mm^3 and 297.5 mm^3 and 842.6 mm^3 and 884.2 mm^3 | Tumor volume (HepG2 tumor; G2 OBI-3424 (0.3 mg/kg), D27, group Mean): 717.3 mm^3 | Tumor volume (HepG2 tumor; G2 OBI-3424 (0.3 mg/kg), D27, individual animals, 0.3 mg/kg): 926.9 mm^3 and 527.6 mm^3 and 909.1 mm^3 and 205.1 mm^3 and 848.5 mm^3 and 886.5 mm^3 | Tumor volume (HepG2 tumor; [2]): 716.4 mm^3 | Tumor weight (HepG2 tumor; [2]): 304.45 mg | Tumor volume (HepG2 tumor; [3]): 1012. mm^3 and 468.2 mm^3 and 882.8 mm^3 and 181.5 mm^3 and 850.4 mm^3 and 903.5 mm^3 | Tumor weight (HepG2 tumor; [3]): 445.50 mg and 223.90 mg and 327.90 mg and 63.40 mg and 449.00 mg and 317.00 mg | TGI (HepG2 tumor; G3 OBI-3424 (1 mg/kg)): 113.27% | Tumor volume (HepG2 tumor; G3 OBI-3424 (1 mg/kg), D0, individual animals, 1 mg/kg): 290.8 mm^3 and 318.0 mm^3 and 286.8 mm^3 | Tumor volume (HepG2 tumor; G3 OBI-3424 (1 mg/kg), D2, individual animals, 1 mg/kg): 295.5 mm^3 and 322.4 mm^3 and 292.9 mm^3 | Tumor volume (HepG2 tumor; G3 OBI-3424 (1 mg/kg), D6, individual animals, 1 mg/kg): 297.0 mm^3 and 328.4 mm^3 and 304.4 mm^3 | Tumor volume (HepG2 tumor; G3 OBI-3424 (1 mg/kg), D9, individual animals, 1 mg/kg): 337.5 mm^3 and 468.5 mm^3 and 334.0 mm^3 | Tumor volume (HepG2 tumor; G3 OBI-3424 (1 mg/kg), D13, individual animals, 1 mg/kg): 341.3 mm^3 and 492.3 mm^3 and 362.5 mm^3 | Tumor volume (HepG2 tumor; G3 OBI-3424 (1 mg/kg), D16, individual animals, 1 mg/kg): 359.9 mm^3 and 556.8 mm^3 and 465.2 mm^3 | Tumor volume (HepG2 tumor; G3 OBI-3424 (1 mg/kg), D20, individual animals, 1 mg/kg): 345.0 mm^3 and 552.1 mm^3 and 465.2 mm^3 | Tumor volume (HepG2 tumor; G3 OBI-3424 (1 mg/kg), D23, individual animals, 1 mg/kg): 260.7 mm^3 and 544.3 mm^3 and 419.2 mm^3 | Tumor volume (HepG2 tumor; G3 OBI-3424 (1 mg/kg), D27, individual animals, 1 mg/kg): 246.4 mm^3 and 426.0 mm^3 and 295.9 mm^3 | Tumor weight (HepG2 tumor; G3 OBI-3424 (1 mg/kg), D30, group Mean): 84.40 mg | Tumor volume (HepG2 tumor; [4]): 185.2 mm^3 and 295.5 mm^3 and 215.0 mm^3 | Tumor weight (HepG2 tumor; [4]): 62.40 mg and 101.90 mg and 105.20 mg and 90.30 mg and 69.80 mg and 76.80 mg
